Legend:
[1] = test system: carrageenan-induced thermal hyperalgesia in male SD rats; settings: orally administered; cited from earlier work
[2] = test system: adjuvant-induced arthritis in male Lewis rats; settings: cited from earlier work
[3] = plasma pharmacokinetics in healthy male subjects, multiple dose (loading plus daily maintenance dose, 8 days); assay type: in vivo, human
Text: By assuming an elimination half-life of 4 to 5 days for Compound A, were designed multiple dosing regimens by which steady state plasma concentrations of Compound A are rapidly reached and maintained throughout the dosing period. […] Although only two examples of dosing regimens involving a combination of loading dose and daily maintenance dose are provided in Table 3, it is not intended to limit the dosing regimens of this invention only to those provided in Table 3. Obviously, variations in the loading dose and consequent the daily maintenance dose levels may be conceived depending on indications of subjects. For example a loading dose of 2 mg may be used in combination with a daily maintenance dose of about 0.25 mg/day.
The dosing regimens of the instant invention were tested in healthy human male subjects. Table 4 provides mean pre-dose plasma levels of Compound A following oral administrations of capsule drug products containing Compound A according to either Regimen A or Regimen B of Table 3 daily once for 8 days. In both dosing regimens, the pre-dose plasma levels remained almost constant.

[4] = clinical; settings: male, human, plasma, po
[5] = plasma pharmacokinetics in healthy male subjects, single oral dose of capsule drug product

## COc1ccc2c(c1)c(CC(=O)O)c(C)n2C(=O)c1ccc(Cl)cc1 [indomethacin, reference compound]
[1]
  ED50 in carrageenan-induced thermal hyperalgesia: ~1.0 mg/kg
[2]
  ED50 by adjuvant-induced arthritis: 0.3 mg/kg/day

## CC1(C)OC(c2ccc(S(N)(=O)=O)cc2)=C(c2cccc(F)c2)C1=O [Compound A, 5-{4-(aminosulfonyl)phenyl}-2,2-dimethyl-4-(3-fluorophenyl)-3(2H)furanone]
[3]; Regimen A (3 mg loading, 0.4 mg/day maintenance), Day 2
  Mean Pre-dose Plasma Level: 3.8 ng/mL
[3]; Regimen A and Regimen B, daily once for 8 days
  drug accumulation from the multiple dosings: no suggestions of drug accumulation
[3]; Regimen A, Day 1 (before loading dose)
  Mean Pre-dose Plasma Level: 0 ng/mL
[3]; Regimen A, Day 3
  Mean Pre-dose Plasma Level: 4.2 ng/mL
[3]; Regimen A, Day 4
  Mean Pre-dose Plasma Level: 4.0 ng/mL
[3]; Regimen A, Day 5
  Mean Pre-dose Plasma Level: 4.7 ng/mL
[3]; Regimen A, Day 6
  Mean Pre-dose Plasma Level: 4.5 ng/mL
[3]; Regimen A, Day 7
  Mean Pre-dose Plasma Level: 3.6 ng/mL
[3]; Regimen A, Day 8
  Mean Pre-dose Plasma Level: 3.6 ng/mL
[3]; Regimen A, Day 9 (no dose)
  Mean Pre-dose Plasma Level: 4.0 ng/mL
[3]; Regimen B (6 mg loading, 0.8 mg/day maintenance), Day 2
  Mean Pre-dose Plasma Level: 6.2 ng/mL
[3]; Regimen B, Day 1 (before loading dose)
  Mean Pre-dose Plasma Level: 0 ng/mL
[3]; Regimen B, Day 3
  Mean Pre-dose Plasma Level: 6.2 ng/mL
[3]; Regimen B, Day 4
  Mean Pre-dose Plasma Level: 6.3 ng/mL
[3]; Regimen B, Day 5
  Mean Pre-dose Plasma Level: 6.5 ng/mL
[3]; Regimen B, Day 6
  Mean Pre-dose Plasma Level: 6.3 ng/mL
[3]; Regimen B, Day 7
  Mean Pre-dose Plasma Level: 6.6 ng/mL
[3]; Regimen B, Day 8
  Mean Pre-dose Plasma Level: 7.1 ng/mL
[3]; Regimen B, Day 9 (no dose)
  Mean Pre-dose Plasma Level: 6.6 ng/mL
[3]; male, human, plasma, oral, Regimen A and Regimen B, after 8 days of daily once dosing, read-out: mean elimination half-lives following the last dosing
  half-life: 96 to 120 h
[1]
  ED50 in carrageenan-induced thermal hyperalgesia: 0.25 mg/kg
[4]
  half-life: 77 to 135 h
[4]; 1 mg
  Cmax: 1.65 ng/mL
[4]; 5 mg
  Cmax: 7.82 ng/mL
[4]; 8 mg
  Cmax: 13.3 ng/mL
[4]; 12 mg
  Cmax: 18.1 ng/mL
[2]
  ED50 by adjuvant-induced arthritis: 0.1 mg/kg/day
[5]; single oral dose 5 mg (Group 2)
  Terminal Elimination Half-life: 118 ± 66 h
[5]; single oral dose 8 mg (Group 3)
  Terminal Elimination Half-life: 77 ± 8 h
[5]; single oral dose 12 mg (Group 4)
  Terminal Elimination Half-life: 135 ± 24 h
[5]; single oral dose 1 to 12 mg
  dose dependence of Cmax: increased essentially dose proportionally

From patent US20080306146A1, “Dosing Regimens for Cox-2 Inhibitor” (AMOREPACIFIC CORPORATION, priority 2005, published 2008)
